Values joined by “and” are separate entries in the source; they are usually repeats but may differ in a detail not shown here. Equal entries are not always repeated.
Key:
[1] = molecular target: T1, modified sfPFK-L enzyme (70 kDa fragment) (Homo sapiens, UniProt P17858); assay: PFK1 enzymatic assay, modified sfPFK-L; format: biochemical
T1 construct: 45.920 Da [2] and short PFK-L of 69.942 Da fragments [3], respectively; made in house; host or cells: Saccharomyces cerevisiae pfk-null HD-114-8A
T1 sequence (P17858 2-648): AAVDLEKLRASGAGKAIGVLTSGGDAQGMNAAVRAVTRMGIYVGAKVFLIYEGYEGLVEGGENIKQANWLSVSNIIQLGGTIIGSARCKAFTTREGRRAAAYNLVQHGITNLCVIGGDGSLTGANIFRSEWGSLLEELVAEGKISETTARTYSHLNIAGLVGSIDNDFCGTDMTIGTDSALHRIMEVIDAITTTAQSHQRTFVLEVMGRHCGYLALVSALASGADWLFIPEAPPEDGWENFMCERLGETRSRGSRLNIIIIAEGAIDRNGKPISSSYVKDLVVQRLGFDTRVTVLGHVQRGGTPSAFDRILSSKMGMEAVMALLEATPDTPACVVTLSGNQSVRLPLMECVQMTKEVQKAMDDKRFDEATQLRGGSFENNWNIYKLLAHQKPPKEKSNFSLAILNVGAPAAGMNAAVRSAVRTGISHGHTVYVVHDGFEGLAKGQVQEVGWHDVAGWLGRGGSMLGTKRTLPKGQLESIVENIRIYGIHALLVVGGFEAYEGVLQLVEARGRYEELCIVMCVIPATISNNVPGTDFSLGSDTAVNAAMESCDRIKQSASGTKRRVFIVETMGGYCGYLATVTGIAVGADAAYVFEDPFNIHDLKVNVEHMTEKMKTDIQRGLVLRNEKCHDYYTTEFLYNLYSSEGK
Method: (§1) To evaluate the ability of selected compounds to suppress the activities of the recombinant human native and modified PFK-M and PFK-L enzymes, they were constructed in yeast S. cerevisiae as a host organism (S1 Text), partially purified, and their activities assayed (S2 Text).
(§2) S2 Text: PFK1 Enzymatic assays.
(§3) PFK1 activities were determined spectrophotometrically at 340 nm (Lambda 25 UV/VIS spectrophotometer, Perkin Elmer) as reported previously using a coupled reaction system. Unless otherwise stated, in a final volume of 1 mL, the assay mixture contained 50 mM HEPES buffer (pH 7.8), 1 mM DTE, 100 mM KCl, 5 mM MgCl2, 0.2 mM NADH, 0,025 to 2 mM F6P, 10% v/v polyethylene glycol (PEG 6000), 0.9 U/mL aldolase (Sigma-Aldrich, Steinheim, Germany), 15 U/mL triosephosphate isomerase, and 15 U/mL glycerol-3-phosphate dehydrogenase (Sigma-Aldrich, Steinheim, Germany). Before use, the auxiliary enzymes were dialyzed overnight at 4 °C against 50 mM HEPES buffer (pH 7.8) containing 1 mM DTE, with one buffer […]
(§4) induce inhibition. The enzyme concentration used in the kinetic assay was 0.2 µg/mL. […] Total protein concentrations of the samples were determined using a Bio-Rad protein assay (Bio-Rad, Hercules, Ca) with bovine y-globulin […]

Caco-2 cells [2] = assay: Dose-dependent inhibition of lactate formation; format: cell-based; details: 20, 40, 60, 80 µM, up to 72 hours
Method: (§5) If not specified differently, the tumorigenic cells were plated in the RPMI 1640 GlutaMax medium (Thermo Fisher Scientific, Waltham, MA, USA) supplemented with 10% FBS at the concentration of 5 × 10^5 cells per mL. The cells were incubated at 37 °C and 5% CO2. Different concentrations of specific inhibitors were added to the medium at the beginning of inoculation. An adequate amount of DMSO used in the solution with the specified concentrations of compounds was added to the vehicle.
(§6) For measuring lactate concentrations in the medium, 20 µL samples were taken at specified time intervals, centrifuged at 1200 rpm for 5 minutes at 4 °C and 15 µL supernatants were preserved at 4 °C until analyzed.
(§7) Lactate levels were assessed enzymatically using an L-Lactic acid assay kit (K-LATE, Megazyme, Bray, Ireland) and measured according to the manufacturer’s instructions.
(§8) The lactate formation, growth yield, and survival under normal and inhibitory conditions of four tumorigenic cell lines were investigated. […] Cells were grown in the presence of vehicles or inhibitors at different concentrations (20, 40, 60, and 80 µM), and lactate levels in the supernatant were determined sequentially.

Jurkat cells [3] = assay: Dose-dependent inhibition of lactate formation; format: cell-based; details: for Stability of the compounds during incubation, indicated by increasing lactate formation in later phases: Jurkat cell culture medium, after 24 hours up to 72 hours; for Lactate formation in the first 24 hours: Jurkat cells, 20, 40, 60, 80 µM, regardless of concentration, later dose-dependent lactate production up to 72 hours
Method: as §5, §6, §7, §8

MDA-MB-231 cells [4] = assay: Dose-dependent inhibition of lactate formation; format: cell-based; details: 20, 40, 60, 80 µM, up to 72 hours
Method: as §5, §6, §7, §8

[5] = molecular target: T2, modified sfPFK-M enzyme (47 kDa fragment) (Homo sapiens, UniProt P08237); assay: PFK1 enzymatic assay, modified sfPFK-M; format: biochemical
T2 sequence (P08237 2-390 limits assumed): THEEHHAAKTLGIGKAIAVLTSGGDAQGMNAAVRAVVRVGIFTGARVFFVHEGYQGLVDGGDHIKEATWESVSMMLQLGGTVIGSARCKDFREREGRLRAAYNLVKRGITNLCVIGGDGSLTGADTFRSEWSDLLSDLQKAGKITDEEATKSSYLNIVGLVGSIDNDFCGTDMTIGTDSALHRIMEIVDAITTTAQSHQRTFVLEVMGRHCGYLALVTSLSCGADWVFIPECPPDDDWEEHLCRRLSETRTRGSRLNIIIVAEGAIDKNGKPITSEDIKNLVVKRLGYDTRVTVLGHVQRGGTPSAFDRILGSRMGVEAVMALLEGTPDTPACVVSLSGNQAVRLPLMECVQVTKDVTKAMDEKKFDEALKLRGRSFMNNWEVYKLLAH
Method: as §1, §2, §3, §4

[6] = molecular target: T3, native nPFK-M enzyme (85 kDa) (Homo sapiens, UniProt P08237); assay: PFK1 enzymatic assay, native nPFK-M; format: biochemical
T3 construct: made in house; host or cells: Saccharomyces cerevisiae pfk-null HD-114-8A
T3 sequence (P08237 1-780): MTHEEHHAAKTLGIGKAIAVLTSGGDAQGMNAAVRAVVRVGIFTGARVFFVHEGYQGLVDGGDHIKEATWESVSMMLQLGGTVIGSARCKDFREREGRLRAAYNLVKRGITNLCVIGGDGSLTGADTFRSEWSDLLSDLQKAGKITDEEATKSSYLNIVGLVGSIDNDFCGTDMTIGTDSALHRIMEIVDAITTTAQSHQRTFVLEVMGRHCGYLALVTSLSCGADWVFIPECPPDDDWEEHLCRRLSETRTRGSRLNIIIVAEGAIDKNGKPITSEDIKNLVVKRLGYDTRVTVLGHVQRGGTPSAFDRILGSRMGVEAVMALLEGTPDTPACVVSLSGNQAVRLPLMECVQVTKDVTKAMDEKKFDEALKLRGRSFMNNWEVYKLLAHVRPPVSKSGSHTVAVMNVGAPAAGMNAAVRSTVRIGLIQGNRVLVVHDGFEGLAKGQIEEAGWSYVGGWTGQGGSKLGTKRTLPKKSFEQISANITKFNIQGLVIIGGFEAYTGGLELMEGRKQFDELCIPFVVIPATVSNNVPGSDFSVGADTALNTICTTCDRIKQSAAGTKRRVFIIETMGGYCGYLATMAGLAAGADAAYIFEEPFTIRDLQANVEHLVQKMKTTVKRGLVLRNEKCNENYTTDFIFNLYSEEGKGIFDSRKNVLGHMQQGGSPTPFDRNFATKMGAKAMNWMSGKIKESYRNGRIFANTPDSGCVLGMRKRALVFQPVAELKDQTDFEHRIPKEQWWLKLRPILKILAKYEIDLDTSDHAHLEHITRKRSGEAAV
Method: as §1, §2, §3, §4

[7] = test system: all tumorigenic cell lines tested; assay: ROS/SOX reduction by sequential re-insertion, statement for all lines; format: cell-based; details: sequentially re-added every 24 hours
Method: After 78 hours cells were washed by centrifugation, and an aliquot of 1 × 10^5 cells was placed into 1 mL of phenol red-free IMDM medium (Thermo Fisher Scientific, Waltham, MA, USA) supplemented with 10% of FBS. The cells were incubated for an additional 3 hours before measurement.
For detecting ROS and SOX levels in the cells, 100 µL of medium was washed with PBS by standard centrifugation protocol and then placed into a well on the 96-well black wall/clear bottom plate. To each well 100 µL ROS detection reagent (Green) and SOX detection reagent (Orange) were added as specified in the Cellular ROS/SOX Detection Assay Kit (ab139476 Abcam, Cambridge, UK). For measuring superoxide Cellular Superoxide Detection Assay Kit (ab139477 Abcam, Cambridge, UK) was used that contains “Orange” but not the “Green” reagent.

COLO 829 cells [8] = assay: Cytostatic assay (XTT cell proliferation); format: cell-based; details: up to 80 µM, 72 hours
Method: (§9) Untreated cells and cells treated with different concentrations of inhibitors were incubated for 72 hours before alive cellular biomass was determined according to the manufacturer’s instructions.

Caco-2 cells [9] = assay: Cytostatic assay (XTT cell proliferation); format: cell-based; details: up to 80 µM, 72 hours
Method: as §9

MDA-MB-231 cells [10] = assay: Cytostatic assay (XTT cell proliferation); format: cell-based; details: up to 80 µM, 72 hours
Method: as §9

Jurkat cells [11] = assay: Cytostatic assay (XTT cell proliferation); format: cell-based; details: 20-80 µM
Method: as §9
To investigate possible cytostatic effects of the inhibitors, the total cell number of Jurkat cells treated with vehicles of different concentrations of inhibitors was determined immediately after incubation.

COLO 829 cells [12] = format: cell-based; details: 72 hours
Method: (§10) As a negative control, 100 µL Triton X-100 was added to wells containing 1mL medium with cells. For the survival evaluation in the dose-dependent tests, the measurements were conducted at the end of incubation at 72 hours of growth in the medium.

Caco-2 cells [13] = format: cell-based; details: 72 hours
Method: as §10

MDA-MB-231 cells [14] = format: cell-based; details: 72 hours
Method: as §10

Jurkat cells [15] = format: cell-based
Method: as §10
The potential cytotoxicity of the inhibitors was also assessed. At the end of the incubation, the average percentage of dead cells was determined in the presence of a vehicle and a 80 µM concentration of each inhibitor.

COLO 829 cells [16] = assay: Dose-dependent inhibition of lactate formation; format: cell-based; details: 20, 40, 60, 80 µM, up to 72 hours
[17] = 10 µM sequentially added every 24 hours

`Nc1nnc(-c2cc(-c3ccc(O)cc3)on2)o1` [cmpd No. 30, 4-[3-(5-amino-1,3,4-oxadiazol-2-yl)isoxazol-5-yl]phenol] was tested, and the IC50 [1] was 8 µM, the “Lactate accumulation, dose-dependent test” value (Caco-2 cells [2]) was “dose-dependent reduction in lactate accumulation” and the “Stability of the compounds during incubation, indicated by increasing lactate formation in later phases” value (Jurkat cells [3]) was “instability”. The “Lactate formation in the first 24 hours” value (Jurkat cells [3]) was “no or only small amounts of lactate” and the “Lactate suppression, dose-dependent test” value (MDA-MB-231 cells [4]) was “Dose-dependent effects”.
For `O=C(CSc1nnc(-c2ccc3c(c2)OCO3)o1)Nc1ccon1` [cmpd No. 3, 2-[(5-benzo[1,3]dioxol-5-yl-1,3,4-oxadiazol-2-yl)sulfanyl]-N-isoxazol-3-yl-acetamide], the IC50 [5] was 15 µM and ~15 µM and the IC50 [6] was 18 µM.
With `COc1ccc(-c2cccc(-c3ccn(Cc4noc(C)n4)n3)c2)nn1` [cmpd No. 9, 3-methoxy-6-(3-{1-[(5-methyl-1,2,4-oxadiazol-3-yl)methyl]-1H-pyrazol-3-yl}phenyl)pyridazine] the “Reduction of ROS formation” value ([7]; 5 µM) was “approximately 50%”, the “Reduction of ROS formation” value ([7]; 10 and 20 µM) was “approximately 65%” and the “Cytostatic effect (total cell number compared to the control)” value (COLO 829 cells [8]) was “No significant differences in the total cell number”. For the same compound, the “Cytostatic effect (total number of cells at the end of incubation)” value (Caco-2 cells [9]) was “no adverse effects on cell growth”, the “Cytostatic effect (total cell number)” value (MDA-MB-231 cells [10]) was “No significant differences in total cell number” and the “Cytostatic effect (cells counted after 72 hours of incubation)” value (Jurkat cells [11]) was “no significant cytostatic”. The “Average percentage of dead cells, sequentially treated” value (COLO 829 cells [12]; [17]) was 2.84 ± 0.19%, the “Average percentage of dead cells” value (COLO 829 cells [12]; dose-dependent test) was 3.65 ± 0.78% and the “Average percentage of dead cells, sequentially treated” value (Caco-2 cells [13]; [17]) was 4.03 ± 0.32%. The “Average percentage of dead cells” value (Caco-2 cells [13]; dose-dependent test, different concentrations of inhibitors) was 3.33 ± 0.14%, the “Average percentage of dead cells, sequentially treated” value (MDA-MB-231 cells [14]; [17]) was 2.35 ± 0.09% and the “Average percentage of dead cells” value (MDA-MB-231 cells [14]; dose-dependent test) was 6.59 ± 0.29%. For the same compound, the “Average percentage of dead cells” value (Jurkat cells [15]; 80 µM, end of incubation 72 hours) was 3.74 ± 0.3%, the “Average percentage of dead cells, sequentially treated” value (Jurkat cells [15]; 10 µ L sequentially added every 24 hours, 72 hours) was 3.24 ± 0.25% and the “Lactate formation, dose-dependent test” value (COLO 829 cells [16]) was “Apparent dose-dependent effects of suppressed lactate formation”. For the same compound, the “Lactate accumulation, dose-dependent test” value (Caco-2 cells [2]) was “dose-dependent reduction in lactate accumulation”, the “Stability of the compounds during incubation, indicated by increasing lactate formation in later phases” value (Jurkat cells [3]) was “instability” and the “Lactate formation in the first 24 hours” value (Jurkat cells [3]) was “no or only small amounts of lactate”. The “Lactate suppression, dose-dependent test” value (MDA-MB-231 cells [4]) was “Dose-dependent effects”.

Source: paper PMC12094722, “Small-molecule inhibitors of 6-phosphofructo-1-kinase simultaneously suppress lactate and superoxide generation in cancer cells” (PLOS One, 2025)
